The text below walks through data of US9957271B2, “Substituted bicyclic aza-heterocycles and analogues as sirtuin modulators” (GlaxoSmithKline, LLC, priority 2012, dated 2018).

Like-named read-outs stand apart in the source and are kept apart here.

For the test, the target named is T1, SIRT1 (Homo sapiens, UniProt Q96EB6).
T1 sequence (Q96EB6 1-747): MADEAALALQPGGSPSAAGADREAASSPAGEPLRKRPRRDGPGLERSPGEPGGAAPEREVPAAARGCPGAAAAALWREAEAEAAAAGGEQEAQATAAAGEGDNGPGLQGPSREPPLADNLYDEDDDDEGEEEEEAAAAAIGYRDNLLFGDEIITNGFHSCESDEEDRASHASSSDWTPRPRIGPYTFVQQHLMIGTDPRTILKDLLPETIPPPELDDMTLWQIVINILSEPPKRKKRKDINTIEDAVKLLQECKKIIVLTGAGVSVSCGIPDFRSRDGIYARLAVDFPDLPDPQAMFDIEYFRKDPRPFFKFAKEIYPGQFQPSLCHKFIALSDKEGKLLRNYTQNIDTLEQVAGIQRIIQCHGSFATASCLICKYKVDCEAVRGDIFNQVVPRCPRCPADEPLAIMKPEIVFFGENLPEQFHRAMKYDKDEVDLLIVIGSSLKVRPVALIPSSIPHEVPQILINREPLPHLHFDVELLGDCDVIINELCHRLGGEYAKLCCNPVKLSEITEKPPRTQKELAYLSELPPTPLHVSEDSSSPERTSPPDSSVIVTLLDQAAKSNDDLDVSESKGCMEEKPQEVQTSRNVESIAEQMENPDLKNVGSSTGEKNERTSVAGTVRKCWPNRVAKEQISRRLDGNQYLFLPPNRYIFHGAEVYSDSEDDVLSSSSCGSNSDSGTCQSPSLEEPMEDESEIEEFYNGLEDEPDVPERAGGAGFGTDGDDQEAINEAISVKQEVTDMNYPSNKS
Kind of test: TAMRA based mass spectrometry assay of SIRT1 activity. Format: biochemical. Conditions: for Emax: read-out: TAMRA % Fold Act. A digest of the protocol:
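Recombinant N-terminal His-tagged human SIRT1 (10 nM, E. coli) incubated 25 min at 25 °C with 0.5 μM 5TMR-labelled p53-derived acetyl-peptide and 120 μM βNAD+ in Tris-acetate pH 8 buffer with DTT and 0.05% BSA, compound at varying concentrations. Stopped with formic acid; deacetylated peptide or OAADPR measured by mass spectrometry relative to DMSO controls.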

Setting [1] is: concentration of test compound giving 150% activation of SIRT1, TAMRA peptide substrate.
The mark [2] stands for this setting: percent maximum fold activation of SIRT1, TAMRA peptide substrate.
Setting [3] is: TAMRA assay, concentration giving 150% activation of SIRT1.
Where [4] appears, read: TAMRA assay, percent maximum fold activation.
[5] abbreviates: TAMRA peptide substrate, concentration giving 150% activation of SIRT1.
Where [6] appears, read: TAMRA peptide substrate, percent maximum fold activation.

Take `Cn1cc(-c2ccc3ncc(C(=O)Nc4ccnc(N5CCCC5)c4)n3n2)cn1` [Compound 57]: the “TAMRA EC1.5 (μM)” value under setting [1] was “C (EC1.5>25 μM)”. The Emax under setting [2] is less than 350%.
On to `O=C(Nc1ccc(N2CCOCC2)cn1)c1cnc2ccc(-c3ccccc3C(F)(F)F)nn12` [Compound 199], for which the “TAMRA EC1.5 (μM)” value under setting [3] was “A (EC1.5<1 μM)”. The Emax under setting [4] is not below 350%.
Turning to `O=C(Nc1cnn2ccc(-c3ccccc3C(F)(F)F)nc12)c1cnccn1` [Compound 253], the “TAMRA EC1.5 (μM)” value under setting [3] is given as “B (EC1.5 1-25 μM)”. The Emax under setting [4] is not below 350%.
Regarding `O=C(Nc1cnc2ccc(-c3ccccc3C(F)(F)F)nn12)c1cccc(OCC(O)CO)n1` (stereo not drawn) [Compound 235], the “TAMRA EC1.5 (μM)” value under setting [3] is on record as “A (EC1.5<1 μM)”. In addition, the “TAMRA % Fold Act” value under setting [4] is on record as “A (Fold activation ≥350%)”.
On to `Cc1cc(NC(=O)c2cnc3ccc(-c4ccccc4C(F)(F)F)nn23)cc(C)n1` [Compound 99], for which the “TAMRA EC1.5 (μM)” value under setting [1] was “A (EC1.5<1 μM)”. Further, the Emax under setting [2] was not below 350%.
With `CCOc1ccc(NC(=O)c2c(C)nc3ccc(-c4ccccc4F)nn23)nn1` [Compound 741], the “TAMRA EC1.5 (μM)” value under setting [3] is listed as “B (EC1.5 1-25 μM)”. In addition, the Emax under setting [4] is less than 350%.
For `CCOc1ccc(NC(=O)c2cnn3ccc(-c4ccccc4C(F)(F)F)nc23)nn1` [Compound 658] the same measures were “A (EC1.5<1 μM)” and not below 350%.
For the compound `N#Cc1ccccc1-c1ccc2ncc(C(=O)Nc3ccnc(N4CCC4)c3)n2n1` [Compound 201], the “TAMRA EC1.5 (μM)” value under setting [3] is “B (EC1.5 1-25 μM)”. The Emax under setting [4] was not below 350%.
For the compound `O=C(Nc1cnc2ccc(-c3ccccc3F)nn12)c1cccc(N2CCC2)n1` [Compound 302], the “TAMRA EC1.5 (μM)” value under setting [3] is given as “A (EC1.5<1 μM)”. Also, the Emax under setting [4] was not below 350%.
For `O=C(Nc1cccc(CN2CCOCC2)n1)c1cnc2ccc(-c3cc(F)ccc3F)nn12` [Compound 30], the “TAMRA EC1.5 (μM)” value under setting [1] is on record as “B (EC1.5 1-25 μM)”. In addition, under setting [2], the Emax was less than 350%.
Consider `CC(CO)(CO)Oc1nccc(NC(=O)c2cnc3ccc(-c4ccccc4C(F)(F)F)nn23)n1` [Compound 278], for which, under setting [3], the “TAMRA EC1.5 (μM)” value is reported as “B (EC1.5 1-25 μM)”. Further, the Emax under setting [4] is less than 350%.
Regarding `O=C(Nc1cnn2ccc(-c3ccccc3C(F)(F)F)nc12)c1nccs1` [Compound 563], the “TAMRA EC1.5” value under setting [5] is reported as “A (EC1.5<1 μM)”. Under setting [6], the Emax was not below 350%.
`CC(C)c1csc(C(=O)Nc2cnn3ccc(-c4ccccc4OC(F)(F)F)nc23)n1` [Compound 771]: under setting [3], the “TAMRA EC1.5 (μM)” value is “A (EC1.5<1 μM)”. In addition, the Emax under setting [4] was not below 350%.
As to `O=C(Nc1cnc2ccc(-c3ccccc3Cl)nn12)c1ccncn1` [Compound 289], the “TAMRA EC1.5 (μM)” value under setting [3] is recorded as “B (EC1.5 1-25 μM)”. Further, under setting [4], the Emax is less than 350%.
In the case of `COCc1nccc(NC(=O)c2c(C)nc3c(C)cc(-c4ccccc4C(F)(F)F)nn23)n1` [Compound 733], under setting [3], the “TAMRA EC1.5 (μM)” value was “A (EC1.5<1 μM)”. The Emax under setting [4] was not below 350%.
As to `O=C(Nc1cccc(N2CCCC2)n1)c1cnc2ccc(-c3ccccc3C(F)(F)F)nn12` [Compound 22], under setting [1], the “TAMRA EC1.5 (μM)” value is recorded as “A (EC1.5<1 μM)”. Further, under setting [2], the Emax was not below 350%.
As to `Cc1nc(NC(=O)c2cnn3ccc(-c4ccccc4C(F)(F)F)nc23)sc1C` [Compound 509], the “TAMRA EC1.5” value under setting [5] is recorded as “A (EC1.5<1 μM)”. The Emax under setting [6] is not below 350%.
With `O=C(Nc1cnc2ccc(-c3ccccc3C(F)(F)F)nn12)c1ncccn1` [Compound 121], under setting [1], the “TAMRA EC1.5 (μM)” value is on record as “A (EC1.5<1 μM)”. Moreover, the Emax under setting [2] was not below 350%.
Turning to `CC1(COc2cccc(NC(=O)c3cnc4ccc(-c5ccccc5C(F)(F)F)nn34)n2)COC1` [Compound 295], the “TAMRA EC1.5 (μM)” value under setting [3] is reported as “A (EC1.5<1 μM)”. The Emax under setting [4] is not below 350%.
For `Cc1ccnc(C(=O)Nc2cnn3ccc(-c4ccccc4OC(F)(F)F)nc23)c1` [Compound 714] the same measures were “A (EC1.5<1 μM)” and not below 350%.
For `Cc1nc(C(=O)Nc2cnc3ccc(-c4ccccc4F)nn23)c(C)s1` [Compound 300], the “TAMRA EC1.5 (μM)” value under setting [3] was “A (EC1.5<1 μM)”. In addition, under setting [4], the Emax is less than 350%.
With `O=C(Nc1cnc2ccc(-c3ccccc3C(F)(F)F)nn12)c1ccccn1` [Compound 85], under setting [1], the “TAMRA EC1.5 (μM)” value is reported as “A (EC1.5<1 μM)”. Under setting [2], the Emax was not below 350%.
Regarding `O=C(Nc1cc(N2CCOCC2)ccn1)c1cnc2ccc(-c3ccccc3C(F)(F)F)nn12` [Compound 176], under setting [1], the “TAMRA EC1.5 (μM)” value is listed as “A (EC1.5<1 μM)”. Under setting [2], the Emax is less than 350%.
In the case of `O=C(Nc1cnc2ccc(-c3ccccc3C(F)(F)F)nn12)c1ncc(F)cc1F` [Compound 440], under setting [5], the “TAMRA EC1.5” value was “A (EC1.5<1 μM)”. Moreover, the Emax under setting [6] was not below 350%.
As to `Cn1nccc1NC(=O)c1cnc2ccc(-c3ccccc3C(F)(F)F)nn12` [Compound 115], the “TAMRA EC1.5 (μM)” value under setting [1] was “C (EC1.5>25 μM)”. For the same compound, under setting [2], the Emax is less than 350%.
As to `O=C(Nc1cccc(OCC(O)CO)n1)c1cnc2ccc(-c3ccccc3C(F)(F)F)nn12` (stereo not drawn) [Compound 212, N-(6-(2,3-dihydroxypropoxy)pyridin-2-yl)-6-(2-(trifluoromethyl)phenyl)imidazo[1,2-b]pyridazine-3-carboxamide], the “TAMRA EC1.5 (μM)” value under setting [3] was “A (EC1.5<1 μM)”. Also, the Emax under setting [4] is not below 350%.
Regarding `Cc1nn2ccc(-c3ccccc3C(F)(F)F)nc2c1C(=O)Nc1ccccn1` [Compound 548], under setting [5], the “TAMRA EC1.5” value is given as “A (EC1.5<1 μM)”. In addition, the Emax under setting [6] is not below 350%.
As for `COc1cccc(C(=O)Nc2cnn3ccc(-c4ccccc4OC(F)(F)F)nc23)n1` [Compound 751], under setting [3], the “TAMRA EC1.5 (μM)” value was “A (EC1.5<1 μM)”. In addition, the Emax under setting [4] was not below 350%.
In the case of `COc1cncnc1NC(=O)c1c(C)nc2ccc(-c3ccccc3C(F)(F)F)nn12` [Compound 670], under setting [3], the “TAMRA EC1.5 (μM)” value was “A (EC1.5<1 μM)”. Moreover, the Emax under setting [4] is not below 350%.
For `Cc1cnc(C(=O)Nc2cnc3ccc(-c4ccccc4C(F)(F)F)nn23)cn1` [Compound 219, 5-methyl-N-(6-(2-(trifluoromethyl)phenyl)imidazo[1,2-b]pyridazin-3-yl)pyrazine-2-carboxamide] the same measures were “A (EC1.5<1 μM)” and not below 350%.
For `COc1ccc(NC(=O)c2c(C)nc3ccc(-c4cccc(C)c4)nn23)nn1` [Compound 759] the same measures were “A (EC1.5<1 μM)” and less than 350%.
On to `Cc1cnc(C(=O)Nc2cnc3cc(C)c(-c4ccccc4C(F)(F)F)nn23)s1` [Compound 447], for which the “TAMRA EC1.5” value under setting [5] is “A (EC1.5<1 μM)”. In addition, the Emax under setting [6] is not below 350%.
Regarding `Cc1cc(-c2ccccc2C(F)(F)F)nn2c(C(=O)Nc3ccccn3)cnc12` [Compound 194], under setting [1], the “TAMRA EC1.5 (μM)” value is listed as “A (EC1.5<1 μM)”. The Emax under setting [2] is not below 350%.
In the case of `Cc1nn2ccc(-c3ccccc3C(F)(F)F)nc2c1C(=O)Nc1ccncc1` [Compound 560], the “TAMRA EC1.5” value under setting [5] is on record as “A (EC1.5<1 μM)”. Further, under setting [6], the Emax is not below 350%.
Take `Cc1nc2ccc(-c3ccccc3C(F)(F)F)nn2c1C(=O)Nc1cccc(N2CCCC2)n1` [Compound 70]: under setting [1], the “TAMRA EC1.5 (μM)” value is reported as “A (EC1.5<1 μM)”. Moreover, the Emax under setting [2] was not below 350%.
In the case of `O=C(Nc1cc(OCC(O)CO)ccn1)c1cnc2ccc(-c3ccccc3C(F)(F)F)nn12` (stereo not drawn) [Compound 75, N-(4-(2,3-dihydroxypropoxy)pyridin-2-yl)-6-(2-(trifluoromethyl)phenyl)imidazo[1,2-b]pyridazine-3-carboxamide], the “TAMRA EC1.5 (μM)” value under setting [1] was “B (EC1.5 1-25 μM)”. The Emax under setting [2] was not below 350%.
As to `O=C(Nc1cccc(N2CCOCC2)n1)c1cnn2ccc(-c3ccccc3OC(F)(F)F)nc12` [Compound 534], the “TAMRA EC1.5” value under setting [5] was “A (EC1.5<1 μM)”. Further, the Emax under setting [6] was not below 350%.
Turning to `Cc1ccc(NC(=O)c2cnn3ccc(-c4ccccc4C(F)(F)F)nc23)cn1` [Compound 631], the “TAMRA EC1.5 (μM)” value under setting [3] is listed as “A (EC1.5<1 μM)”. Moreover, the Emax under setting [4] was not below 350%.
For `Cc1nc2ccc(-c3ccccc3Cl)nn2c1NC(=O)c1cnccn1` [Compound 347], in that order: “C (EC1.5>25 μM)” and less than 350%.
Consider `Cc1nc2ccc(-c3ccccc3C(F)(F)F)nn2c1C(=O)Nc1ccnn1C` [Compound 675], for which the “TAMRA EC1.5 (μM)” value under setting [3] was “C (EC1.5>25 μM)”. The Emax under setting [4] was less than 350%.
For the compound `Cc1cc(C)c(NC(=O)c2cnn3ccc(-c4ccccc4OC(F)(F)F)nc23)cn1` [Compound 661], the “TAMRA EC1.5 (μM)” value under setting [3] is listed as “B (EC1.5 1-25 μM)”. Under setting [4], the Emax is less than 350%.
With `Cc1cnc(C(=O)Nc2cnc3ccc(-c4ccccc4Cl)nn23)s1` [Compound 306], under setting [3], the “TAMRA EC1.5 (μM)” value is given as “B (EC1.5 1-25 μM)”. Further, the Emax under setting [4] was not below 350%.
